Key:
[1] = biological target: GDP-bound NRAS wild-type protein (Homo sapiens, UniProt P01111); test: Binding to NRAS by surface plasmon resonance (SPR), KD and KD ratio to KRAS
Method in brief: (§1)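 Affinity is measured by surface plasmon resonance at 30°C against captured, GDP-loaded RAS carrying a biotinylated Avi tag. Compounds are titrated by single-cycle kinetics, and KD comes from a 1:1 fit.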

HRAS wild-type protein = HRAS wild-type protein (Homo sapiens, UniProt P01112); test: Binding to HRAS by surface plasmon resonance (SPR), KD and KD ratio to KRAS
Method in brief: as §1

[2] = system: human lung cancer strain NCI-H441; assay type: cell-based
Method in brief: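 Readout: […] after the ATP-based reagent. Compound: serial dilutions in dimethyl sulfoxide.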

[3] = ratio of KD for GDP-bound NRAS wild-type protein to KD for KRAS
[4] = ratio of KD for HRAS wild-type protein to KD for KRAS
[5] = ratio of KD with respect to GDP-bound NRAS wild-type protein to KD with respect to KRAS
[6] = ratio of KD with respect to HRAS wild-type protein to KD with respect to KRAS

GDP-bound NRAS wild-type protein, sequence (P01111 whole entry): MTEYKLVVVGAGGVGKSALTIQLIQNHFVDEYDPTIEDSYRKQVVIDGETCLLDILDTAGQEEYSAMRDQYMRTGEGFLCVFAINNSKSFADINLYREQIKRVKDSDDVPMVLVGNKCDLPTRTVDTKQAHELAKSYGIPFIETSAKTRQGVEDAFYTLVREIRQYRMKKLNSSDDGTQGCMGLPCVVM
HRAS wild-type protein, sequence (P01112 whole entry): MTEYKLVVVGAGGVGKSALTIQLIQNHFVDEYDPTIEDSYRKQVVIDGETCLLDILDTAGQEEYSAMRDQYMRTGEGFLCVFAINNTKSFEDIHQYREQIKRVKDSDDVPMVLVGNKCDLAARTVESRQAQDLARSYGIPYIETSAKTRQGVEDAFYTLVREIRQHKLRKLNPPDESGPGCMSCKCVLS

Row | SMILES | IC50 [2] | NRAS /KRAS [1, 3] | HRAS /KRAS (HRAS wild-type protein; [4]) | NRAS /KRAS [1, 5] | HRAS /KRAS (HRAS wild-type protein; [6])
1 | CCO[C@@H]1C[C@H]2C(=O)NC3(CCC3)C(=O)N(C)[C@@H](C3CCCC3)C(=O)N(C)[C@H](C(=O)N(C)C)CC(=O)N(C)[C@@H](CCC(=O)N(C)C)C(=O)N[C@@H]([C@@H](C)CC)C(=O)N(C)CC(=O)N(C)[C@H]3C/C=C\CCN(C3=O)[C@@H](Cc3ccc(C(F)(F)F)cc3)C(=O)N(C)CC(=O)N[C@@H](CCc3cc(F)c(C(F)(F)F)c(F)c3)C(=O)N2C1 [PP1122] | 275 nM | A (a compound having 10 or more and less than 20 is denoted as A) | B (a compound having 3 or more and less than 10 is denoted as B) |  | 
2 | CCO[C@@H]1C[C@H]2C(=O)NC3(CCC3)C(=O)N(C)[C@@H](C3CCCC3)C(=O)N(C)[C@H](C(=O)N(C)C)CC(=O)N(C)[C@@H](Cc3cccs3)C(=O)N[C@@H]([C@@H](C)CC)C(=O)N(C)CC(=O)N(C)[C@H]3C/C=C\CCN(C3=O)[C@@H](Cc3ccc(C(F)(F)F)cc3)C(=O)N(C)CC(=O)N[C@@H](CCc3cc(F)c(C(F)(F)F)c(F)c3)C(=O)N2C1 [PP1123] | 13.4 nM | A (a compound having 10 or more and less than 20 is denoted as A) | B (a compound having 3 or more and less than 10 is denoted as B) |  | 
3 | CCO[C@@H]1C[C@H]2C(=O)NC3(CCC3)C(=O)N(C)[C@@H](C3CCCC3)C(=O)N(C)[C@H](C(=O)N(C)C)CC(=O)N(C)[C@@H](CC(F)(F)F)C(=O)N[C@@H]([C@@H](C)CC)C(=O)N(C)CC(=O)N(C)[C@H]3C/C=C\CCN(C3=O)[C@@H](Cc3ccc(C(F)(F)F)cc3)C(=O)N(C)CC(=O)N[C@@H](CCc3cc(F)c(C(F)(F)F)c(F)c3)C(=O)N2C1 [PP1124] | 12.4 nM | A (a compound having 10 or more and less than 20 is denoted as A) | B (a compound having 3 or more and less than 10 is denoted as B) |  | 
4 | CCO[C@@H]1C[C@H]2C(=O)NC3(CCC3)C(=O)N(C)[C@@H](C3CCCC3)C(=O)N(C)[C@H](C(=O)N(C)C)CC(=O)N(C)[C@@H](Cc3cccc(F)c3)C(=O)N[C@@H]([C@@H](C)CC)C(=O)N(C)CC(=O)N(C)[C@H]3C/C=C\CCN(C3=O)[C@@H](Cc3ccc(C(F)(F)F)cc3)C(=O)N(C)CC(=O)N[C@@H](CCc3cc(F)c(C(F)(F)F)c(F)c3)C(=O)N2C1 [PP1126] | 7.1 nM | A (a compound having 10 or more and less than 20 is denoted as A) | A (a compound having 10 or more and less than 20 is denoted as A) |  | 
5 | CC[C@H](C)[C@@H]1NC(=O)[C@H](CC)N(C)C(=O)C[C@@H](C(=O)N(C)C)N(C)C(=O)[C@H](C2CCCC2)N(C)C(=O)C2(CCC2)NC(=O)[C@@H]2C[C@H](OC)CN2C(=O)[C@H](CCc2cc(F)c(C(F)(F)F)c(F)c2)NC(=O)CN(C)C(=O)[C@H](Cc2ccc(C(F)(F)F)cc2)N2CC/C=C\C[C@@H](C2=O)N(C)C(=O)CN(C)C1=O [PP1128] | 121 nM | AA (a compound having 20 or more is denoted as AA) | A (a compound having 10 or more and less than 20 is denoted as A) |  | 
6 | CCO[C@@H]1C[C@H]2C(=O)NC3(CCC3)C(=O)N(C)[C@@H](C3CCCC3)C(=O)N(C)[C@H](C(=O)N3C[C@@H](C)O[C@@H](C)C3)CC(=O)N(C)[C@@H](CC(C)C)C(=O)N[C@@H]([C@@H](C)CC)C(=O)N(C)CC(=O)N(C)[C@H]3CCCCCN(C3=O)[C@@H](Cc3ccc(F)cc3)C(=O)N(C)CC(=O)N[C@@H](CCc3ccc(C(F)(F)F)c(Cl)c3)C(=O)N2C1 [PP1153] | 15.5 nM |  |  | B (a compound having 3 or more and less than 10 is denoted as B) | B (a compound having 3 or more and less than 10 is denoted as B)
7 | CCO[C@@H]1C[C@H]2C(=O)NC3(CCC3)C(=O)N(C)[C@@H](C3CCCC3)C(=O)N(C)[C@H](C(=O)N(C)CC)CC(=O)N(C)[C@@H](CC3CC3)C(=O)N[C@@H]([C@@H](C)CC)C(=O)N(C)CC(=O)N(C)[C@H]3C/C=C\CCN(C3=O)[C@@H](Cc3ccc(C(F)(F)F)cc3)C(=O)N(C)CC(=O)N[C@@H](CCc3cc(F)c(C(F)(F)F)c(F)c3)C(=O)N2C1 [PP1301] | 4.7 nM |  |  | A (a compound having 10 or more and less than 20 is denoted as A) | A (a compound having 10 or more and less than 20 is denoted as A)
8 | CCO[C@@H]1C[C@H]2C(=O)NC3(CCC3)C(=O)N(C)[C@@H](C3CCCC3)C(=O)N(C)[C@H](C(=O)N(C)CC)CC(=O)N(C)[C@@H](CC(F)F)C(=O)N[C@@H]([C@@H](C)CC)C(=O)N(C)CC(=O)N(C)[C@H]3C/C=C\CCN(C3=O)[C@@H](Cc3ccc(C(F)(F)F)cc3)C(=O)N(C)CC(=O)N[C@@H](CCc3cc(F)c(C(F)(F)F)c(F)c3)C(=O)N2C1 [PP1303] | 4.2 nM |  |  | AA (a compound having 20 or more is denoted as AA) | A (a compound having 10 or more and less than 20 is denoted as A)
9 | CCO[C@@H]1C[C@H]2C(=O)NC3(CCC3)C(=O)N(C)[C@@H](C3CCCC3)C(=O)N(C)[C@H](C(=O)N(CC)CC)CC(=O)N(C)[C@@H](CC(C)C)C(=O)N[C@@H]([C@@H](C)CC)C(=O)N(C)CC(=O)N(C)[C@H]3C/C=C\CCN(C3=O)[C@@H](Cc3ccc(C(F)(F)F)cc3)C(=O)N(C)CC(=O)N[C@@H](CCc3cc(F)c(C(F)(F)F)c(F)c3)C(=O)N2C1 [PP1306] | 14.7 nM |  |  | AA (a compound having 20 or more is denoted as AA) | A (a compound having 10 or more and less than 20 is denoted as A)

The next lines start with results.

Row | IC50 [2] | SMILES | NRAS /KRAS [1, 3] | HRAS /KRAS (HRAS wild-type protein; [4]) | NRAS /KRAS [1, 5] | HRAS /KRAS (HRAS wild-type protein; [6])
10 | 15 nM | CCO[C@@H]1C[C@H]2C(=O)NC3(CCC3)C(=O)N(C)[C@@H](C3CCCC3)C(=O)N(C)[C@H](C(=O)N(C)C)CC(=O)N(C)[C@@H](CC3CCCCC3)C(=O)N[C@@H]([C@@H](C)CC)C(=O)N(C)CC(=O)N(C)[C@H]3C/C=C\CCN(C3=O)[C@@H](Cc3ccc(C(F)(F)F)cc3)C(=O)N(C)CC(=O)N[C@@H](CCc3cc(F)c(C(F)(F)F)c(F)c3)C(=O)N2C1 [PP1125] | A (a compound having 10 or more and less than 20 is denoted as A) | A (a compound having 10 or more and less than 20 is denoted as A) |  | 
11 | 11.9 nM | CCO[C@@H]1C[C@H]2C(=O)NC3(CCC3)C(=O)N(C)[C@@H](C3CCCC3)C(=O)N(C)[C@H](C(=O)N(C)C)CC(=O)N(C)[C@@H](Cc3cccc(Cl)c3)C(=O)N[C@@H]([C@@H](C)CC)C(=O)N(C)CC(=O)N(C)[C@H]3C/C=C\CCN(C3=O)[C@@H](Cc3ccc(C(F)(F)F)cc3)C(=O)N(C)CC(=O)N[C@@H](CCc3cc(F)c(C(F)(F)F)c(F)c3)C(=O)N2C1 [PP1127] | AA (a compound having 20 or more is denoted as AA) | A (a compound having 10 or more and less than 20 is denoted as A) |  | 
12 | 9.5 nM | CCO[C@@H]1C[C@H]2C(=O)NC3(CCC3)C(=O)N(C)[C@@H](C3CCCC3)C(=O)N(C)[C@H](C(=O)N(C)CC)CC(=O)N(C)[C@@H](CC(C)C)C(=O)N[C@@H]([C@@H](C)CC)C(=O)N(C)CC(=O)N(C)[C@H]3C/C=C\CCN(C3=O)[C@@H](Cc3ccc(C(F)(F)F)cc3)C(=O)N(C)CC(=O)N[C@@H](CCc3cc(F)c(C(F)(F)F)c(F)c3)C(=O)N2C1 [PP1300] |  |  | A (a compound having 10 or more and less than 20 is denoted as A) | A (a compound having 10 or more and less than 20 is denoted as A)
13 | 9.2 nM | CCO[C@@H]1C[C@H]2C(=O)NC3(CCC3)C(=O)N(C)[C@@H](C3CCCC3)C(=O)N(C)[C@H](C(=O)N(C)CC)CC(=O)N(C)[C@@H](C)C(=O)N[C@@H]([C@@H](C)CC)C(=O)N(C)CC(=O)N(C)[C@H]3C/C=C\CCN(C3=O)[C@@H](Cc3ccc(C(F)(F)F)cc3)C(=O)N(C)CC(=O)N[C@@H](CCc3cc(F)c(C(F)(F)F)c(F)c3)C(=O)N2C1 [PP1302] |  |  | A (a compound having 10 or more and less than 20 is denoted as A) | A (a compound having 10 or more and less than 20 is denoted as A)
14 | 8.8 nM | CCC[C@H]1C(=O)N[C@@H]([C@@H](C)CC)C(=O)N(C)CC(=O)N(C)[C@H]2C/C=C\CCN(C2=O)[C@@H](Cc2ccc(C(F)(F)F)cc2)C(=O)N(C)CC(=O)N[C@@H](CCc2cc(F)c(C(F)(F)F)c(F)c2)C(=O)N2C[C@H](OCC)C[C@H]2C(=O)NC2(CCC2)C(=O)N(C)[C@@H](C2CCCC2)C(=O)N(C)[C@H](C(=O)N(C)CC)CC(=O)N1C [PP1304] |  |  | A (a compound having 10 or more and less than 20 is denoted as A) | A (a compound having 10 or more and less than 20 is denoted as A)
15 | 13 nM | CCO[C@@H]1C[C@H]2C(=O)NC3(CCC3)C(=O)N(C)[C@@H](C3CCCC3)C(=O)N(C)[C@H](C(=O)N(CC)CC)CC(=O)N(C)[C@@H](CC)C(=O)N[C@@H]([C@@H](C)CC)C(=O)N(C)CC(=O)N(C)[C@H]3C/C=C\CCN(C3=O)[C@@H](Cc3ccc(C(F)(F)F)cc3)C(=O)N(C)CC(=O)N[C@@H](CCc3cc(F)c(C(F)(F)F)c(F)c3)C(=O)N2C1 [PP1305] |  |  | AA (a compound having 20 or more is denoted as AA) | A (a compound having 10 or more and less than 20 is denoted as A)
